Values of other authors in US10113000B2, “Combination therapies for B-cell lymphomas comprising administration of anti-CD20 antibody” (BIOGEN INC., priority 1998, dated 2018).

B1: IL-4: cytokine (protein, UniProt P05112 25-153, looked up)
Interleukin-4: HKCDITLQEIIKTLNSLTEQKTLCTELTVTDIFAASKNTTEKETFCRAATVLRQFYSHHEKDTRCLGATAQQFHRHKQLIRFLKRLDRNLWGLAGLNSCPVKEANQSTLENFLERLKTIMREKYSKCSS

Key:
[1] = system: mononuclear cells from CLL patients; conditions: incubated for 24 hours
[2] = system: multiple myeloma (MM) patient plasma cells

Molecule | CD20 expression by flow cytometry [1] | binding of cells to Rituximab ([2]; MM plasma cells, patient B-cells, normal donor B-cells) | concentration at which plateau of CD20 induction occurred ([2]; at 48 hours) | concentration at which CD20 upregulation is seen ([2]; plasma cells, dose dependent)
GM-CSF: cytokine | significant up-regulation |  |  | 
TNF-alpha | significant up-regulation |  |  | 
gamma-interferon: cytokine |  | augments binding | 100 U/ml | 1 U/ml
B1 | significant up-regulation |  |  | 
